Columns and labels:
Assay type in all cases: cell-based, human
[1] = system: MNC; assay: IGF-1 protein determination (ELISA) in MNC incubations
Source text: (§1) Peripheral blood mononuclear cells (PBMC, i.e., mononuclear cells (MNC)). This refers to mononuclear blood cells which have a round cell nucleus. These are, for example, lymphocytes and monocytes. Said cells play an important role in the immune system in controlling infections. PBMC or MNC are frequently employed in diagnostics as an indicator for infections which are present, as a factor for prognosing the course of an HIV infection and in clinical research. From the blood and sera collection of the tumor tissue bank and the tumor cells of an individual tumor patient that were likewise stored in said bank, they were, after passing through a specific thawing/revitalization procedure, examined for their protein and gene expression, apoptosis behavior and their released messenger substances (cytokine profiles) under the influence of the colostrum preparation Lactobin® N, vitamin D3 and also the combination in a specifically selected repertoire of methods.
The examinations were carried out in order to detect the cytokine insulin-like growth factor 1 (IGF-1) present in the samples. To this end, use was made of enzyme-linked immunosorbent assay (ELISA) sets (from Biosource International, California, USA) in accordance with the protocol instructions from the manufacturer. 50 μl of standard sample, control and the samples were pipetted per well into 96-well plates coated with anti-IGF-1. Thereafter, 50 μl of biotin conjugate (second antibody against IGF-1) were added. Subsequently, the plates were incubated at room temperature for 90 min, washed four times, and 100 μl of streptavidin-HRP working solution were pipetted into the wells and the plate was incubated at room temperature for 45 min. Thereafter, the plates were again washed four times, 100 μl of stabilized chromogen were added and incubated at room temperature for 30 min. Lastly, 100 μl of stop solution were pipetted. The results were read off on the ELISA reader at 450 nm (Dynatech Laboratories, Sullyfield, USA).
To prepare a preparation according to the invention, the above-described colostrum powder (preferably Lactobin N) was admixed with an appropriate amount of the vitamin D3-containing powder, achieving the inventive concentration of vitamin D3. A mixing ratio used according to the invention was 0.2 mg of the vitamin D3-containing powder per gram of colostrum powder (0.2 mg/g). This yielded 0.5 μg of vitamin D3/g of ready-made preparation for the samples. A recommended daily dose is 10 g of ready-made preparation, i.e., 5 μg of vitamin D3. […] Similarly, only the vitamin D3 preparation was used when the samples were treated only with vitamin D3 (e.g., “Vit. D3” in Table 1).

[2] = system: monocytes from the blood of patients with CRC; assay: Gene expression in MNC/monocytes from blood of CRC patients (RT-qPCR); conditions: monocytes from blood of CRC patients UICC I to IV, 12-hour incubation, synergism in UICC I-III, FIG. 5
Procedure: (§2) After collection, EDTA tubes were left to stand at room temperature (RT) for 60 min. Thereafter, serum was removed, divided into portions (1 ml/tube) and stored in −80° C. The blood was centrifuged at 311 g for 10 min. Thereafter, 1 part whole blood+5 parts lysis buffer were mixed, left to stand at RT for 15 min and then centrifuged at 311 g for 10 min. The supernatant was discarded and the pellet was washed with RPMI 1640 medium (repeated 3×). The cells were then counted and frozen at −170° C. in nitrogen at 5×10^6/ml (freezing medium: RPMI 1640 medium containing 5% DMSO, dimethyl sulfoxide=cryopreservation). In addition, the immune status was measured from one tube (FACS analysis, see below).
RNA was extracted from MNCs and homogenized tumor tissue using the RNA Extraction Kit (Qiagen, Hilden, Germany), washed in DEPC 75% ethanol solution and then stored at −70° C. until it was processed further. The amount of RNA was determined by measuring absorption at 260 nm. The 260:280 ratio was determined within the 1.8-2.0 range; it was thus possible to prevent a contamination of the RNA by proteins. […]
The ‘real-time reverse transcription polymerase chain reaction’ method (real-time RT-PCR for short) is used for determining the expression of various genes. Said method allows the quantification of the expression of a gene in question in relation to the control genes. […]

[3] = system: MNC; assay: Cytokine production by MNC after incubation (Luminex immunobead multiplex assay)
Source text: as §1, §2
The cryotube to be thawed was removed from the nitrogen and immediately transferred to a 37° C. water bath. Once the cells had detached from the inner wall of the cryotube (1-1.5 min), they were transferred to a sterile 50 ml Falcon tube containing 40 ml of cold medium. After a 5-minute centrifugation at 400 g, the medium was removed, the cell pellet was resuspended in 6 ml of warmed-up medium and the cells were counted. […]
Interleukin (IL)-12 and proinflammatory factors such as […], IL-6, IFN-γ, TNF-α and anti-inflammatory factors such as IL-10 and IL-13 in the serum samples were measured in duplicate using an immunobead-based multiplex assay. The assays were carried out on a Bio-Plex system (Biosource).
The microspheres coated with mixtures of corresponding capture antibodies and the labeled detection antibodies were purchased from Biosource (Camarillo, […]). The reagents had already been tested and qualified by the manufacturer to rule out a cross-reactivity of the antibody-coated microspheres.
The Luminex measurements were carried out in order to determine further expressed MNC cytokines. 25 μl of antibody-coated microspheres were added to 96-well plates [mixture of the cytokines GM-CSF, IFN-γ, IL-1β, IL-2, IL-4, IL-5, IL-6, IL-8, IL-10 and TNF-α; ready-prepared kit, from Biosource International, California, USA]. After washing had been carried out twice, 50 μl of incubation buffer, 50 μl of ready-prepared sample dilution and 50 μl of sample were pipetted into each well. The plates were incubated in the dark on a shaker for 2 hours at room temperature and again washed twice. Thereafter, 100 μl of the biotinylated detection antibody were added to each well, incubated in the dark on a shaker for a further hour at room temperature, and again washed twice. 100 μl of SAV-RPE (R-phycoerythrin fluorescent dye, from Biosource International) were pipetted into each well, the plates were again shaken in the dark for 30 min at room temperature and washed three times. Each assay preparation was adjusted with 100 μl of wash buffer per well as the final volume and the plates were measured in the Luminex reader (Luminex 100, from Luminex Applied Systems, Sheffield, UK). […]

[4] = MNC of CRC patients UICC I (n = 6)
[5] = MNC of CRC patients UICC II (n = 6)
[6] = MNC of CRC patients UICC III (n = 6)
[7] = MNC of CRC patients UICC IV (n = 6)

Compound `C=C1CC[C@H](O)C/C1=C/C=C1\CCC[C@]2(C)[C@@H]([C@H](C)CCCC(C)C)CC[C@@H]12` [Vit D3, cholecalciferol] has an IGF-1 [1, 4] of 148.6 ng/mL, an IGF-1 [1, 5] of 213.4 ng/mL and an IGF-1 [1, 6] of 299.1 ng/mL. The IGF-1 [1, 7] was 896.4 ng/mL, the IGF-1 ([1]; MNC of Control (n = 6)) was 90.3 ng/mL and the “expression of the IGF-1 gene in MNC” value [2] was “drop in the gene expression profile”. The IFN-γ [3, 4] was 58.5 pg/mL, the IL-1β [3, 4] was 42.5 pg/mL and the IL-6 [3, 4] was 98.7 pg/mL. The IL-10 [3, 4] was 18.3 pg/mL, the IL-12 [3, 4] was 74.9 pg/mL and the IL-13 [3, 4] was 30.1 pg/mL. It also gave a TNF-α [3, 4] of 83.6 pg/mL, an IFN-γ [3, 5] of 77.3 pg/mL and an IL-1β [3, 5] of 34.8 pg/mL. It also gave an IL-6 [3, 5] of 102.8 pg/mL, an IL-10 [3, 5] of 18.1 pg/mL and an IL-12 [3, 5] of 80.1 pg/mL. It also gave an IL-13 [3, 5] of 27.9 pg/mL, a TNF-α [3, 5] of 169.1 pg/mL and an IFN-γ [3, 6] of 215.9 pg/mL. For the same compound, the IL-1β [3, 6] was 169.4 pg/mL, the IL-6 [3, 6] was 91.7 pg/mL and the IL-10 [3, 6] was 17.9 pg/mL. The IL-12 [3, 6] was 214.7 pg/mL, the IL-13 [3, 6] was 26.1 pg/mL and the TNF-α [3, 6] was 331.5 pg/mL. For the same compound, the IFN-γ [3, 7] was 292.5 pg/mL, the IL-1β [3, 7] was 369.9 pg/mL and the IL-6 [3, 7] was 213.1 pg/mL. For the same compound, the IL-10 [3, 7] was 7.9 pg/mL, the IL-12 [3, 7] was 499.9 pg/mL and the IL-13 [3, 7] was 9.1 pg/mL. For the same compound, the TNF-α [3, 7] was 413.1 pg/mL, the IFN-γ ([3]; MNC of Control (n = 6)) was 12.8 pg/mL and the IL-1β ([3]; MNC of Control (n = 6)) was 4.8 pg/mL. The IL-6 ([3]; MNC of Control (n = 6)) was 3.3 pg/mL, the IL-10 ([3]; MNC of Control (n = 6)) was 27.9 pg/mL and the IL-12 ([3]; MNC of Control (n = 6)) was 47.7 pg/mL. The IL-13 ([3]; MNC of Control (n = 6)) was 43.6 pg/mL and the TNF-α ([3]; MNC of Control (n = 6)) was 62.6 pg/mL.

Reference: patent publication US10350244B2, “Pharmaceutical composition for the treatment of diseases in which LPS- and/or apoptosis regulation is disturbed” (priority 2013, dated 2019)
